The source of these data is US20220387345A1, “ANTI-CANCER COMPOUNDS ACTING AS NON-PGP SUBSTRATE” (ASCENTAWITS PHARMACEUTICALS, LTD., priority 2019, published 2022).

The structures appear in SMILES notation. Like-named read-outs stand apart in the source and are kept apart here.

The test system of data set [1] is H460. The experiment in a line: In vitro proliferation of NSCLC human tumor line H460, without or with specific AKR1C3 inhibitor. It is filed as cell-based. The conditions noted are these: H460 cells. As for the experimental part: The cytotoxicity analysis of the human tumor cell lines in vitro was used.
IC50 (half maximal inhibitory concentration) values were in nanomoles and were obtained by the following. Cells were exposed in the compounds with different concentration for 2 hours. The compounds were washed off, and fresh medium was added into plates. A growth rate and a cell-survival rate were obtained by cell staining and compared with a control group treated with the medium only.
The compound was dissolved in 100% DMSO at 200 times of the desired final test concentration. When the drug was added, the compound was further diluted at 4 times of the desired final test concentration by the complete medium. 50 μL aliquots of the compound with specific concentration were added to the microwells contained 150 μL of medium, and then the final drug concentration was obtained. […] After the incubation was finished, the Alamar Blue was used to analyze and quantify the alive cells.
Before 2 h of the compound was prepared, the compound with the inhibitor was added to the cell culture. The inhibitor was […]

In data set [2] the target is P-glycoprotein (P-GP) (Homo sapiens, UniProt P08183). Nature of the data set: Evaluation as P-Gp substrate: penetration test in MDCKII-MDR1 cells with Verapamil as inhibitor. The note with it: dog, MDCK-MDR1. As for the experimental part:
The preparation of the […] for the penetration test: • (1) MDCKII-MDR1 cells were cultured in the cell culture bottle. The conditions of the incubator were 37° C., 5% of CO2, and 95% of the relative humidity. When the cell growth confluence was up to 70-90%, the cells were inoculated to the transwell. • (2) Before the cell inoculation, 50 μL of the culture medium was respectively added to every well of the upper compartment of the transwell, and […] of the culture medium was added to the lower compartment. The transwell was incubated in the incubator under 37° C. and 5% CO2. […] The cell suspension was transferred to the upper compartment of the 96-well transwell, wherein each upper compartment contains 50 μL of the cell suspension. The final inoculum density was 5.45×10^5 cells/cm^2. • (5) The culture medium was replaced after inoculating for 48 h. After culturing for 4-8 days, the medium was changed every other day. • (6) The process of replacing the culture medium was as the follow. The upper compartment and the lower compartment were separated. The medium in the lower compartment was discarded, and then the medium in the upper compartment was discarded. Finally, 75 μL of fresh medium was added to each upper compartment and […] of fresh medium was added to the lower compartment.
Evaluation of the Cell Monolayer Integrity • (1) The MDCKII-MER1 cells should be totally confluent and complete the differentiation after culturing for 4-8 days. The MDCKII-MER1 cells can be used for the penetration test at this time. • (2) Millipore was used to measure the resistance of the cell monolayer, and the resistance of every well was recorded. • (3) After the measuring, the transwell was put back to the incubator. • (4) The calculation of the resistance: measured resistance (ohms)×area of the membrane=TEER value (ohm-cm^2). If TERR value was <42 ohm-cm^2, the well would not be used to the penetration test.
Penetration Test of the Drug • (1) The transwell of the MDCKII-MER1 cells was taken out from the incubator. The cell monolayer was rinsed two times by the buffer solution and incubated at 37° C. for 30 min. • (2) The transport rate of the compound from the top to the bottom was tested. […] 200 μL of the acetonitrile containing the internal standard (100 nM Alprazolam, 200 nM Labetalol, 200 nM caffeine and 2 μM Ketoprofen) was added to each sample tube. After the sample tubes were vortexed for 10 min, the sample tubes were centrifuged at 3220 g for 30 min. 100 μL of the supernatant was taken to be diluted with the same volume of the water, and the LC-MS/MS analysis was executed. Each sample was adopted to the three parallel incubation. • (8) After the cell monolayer was incubated for 2 h, the integrity of the cell monolayer was evaluated by the migration assay using the fluorescence yellow, the fluorescence yellow storage solution was diluted by the buffer solution, and the final concentration was 100 μM/L. 100 μL of the fluorescence yellow solution was added to each well of the upper compartment, and 300 μL of the buffer was added to each well of the lower compartment. After the transwell was incubated at 37° C. for 30 min, 80 µL of the solution from each well of the upper compartment and the lower compartment was respectively transferred to a new 96-well plate. ELISA (Enzyme-linked Immunosorbent Assay) reader was used to perform the fluorimetry with the excitation wavelength of 480 nm and the emission wavelength of 530 nm.
The peak area was calculated by the result of the ion chromatography. The permeability coefficient (Papp, unit: cm/s×10^−6) of the compound was calculated by the formula: […]

[3] abbreviates: in the presence of specific AKR1C3 inhibitor (TH3021, 3 μmol concentration), read-out: Inhibitory effect of the proliferation of the cancer cells IC50 of +TH3021.
[4] abbreviates: Homo sapiens, NCI-H460, 2 h exposure, washed, further 70 h, Alamar Blue, read-out: Inhibitory effect of the proliferation of the cancer cells IC50.

Sequence of P-glycoprotein (P-GP) (P08183 whole entry): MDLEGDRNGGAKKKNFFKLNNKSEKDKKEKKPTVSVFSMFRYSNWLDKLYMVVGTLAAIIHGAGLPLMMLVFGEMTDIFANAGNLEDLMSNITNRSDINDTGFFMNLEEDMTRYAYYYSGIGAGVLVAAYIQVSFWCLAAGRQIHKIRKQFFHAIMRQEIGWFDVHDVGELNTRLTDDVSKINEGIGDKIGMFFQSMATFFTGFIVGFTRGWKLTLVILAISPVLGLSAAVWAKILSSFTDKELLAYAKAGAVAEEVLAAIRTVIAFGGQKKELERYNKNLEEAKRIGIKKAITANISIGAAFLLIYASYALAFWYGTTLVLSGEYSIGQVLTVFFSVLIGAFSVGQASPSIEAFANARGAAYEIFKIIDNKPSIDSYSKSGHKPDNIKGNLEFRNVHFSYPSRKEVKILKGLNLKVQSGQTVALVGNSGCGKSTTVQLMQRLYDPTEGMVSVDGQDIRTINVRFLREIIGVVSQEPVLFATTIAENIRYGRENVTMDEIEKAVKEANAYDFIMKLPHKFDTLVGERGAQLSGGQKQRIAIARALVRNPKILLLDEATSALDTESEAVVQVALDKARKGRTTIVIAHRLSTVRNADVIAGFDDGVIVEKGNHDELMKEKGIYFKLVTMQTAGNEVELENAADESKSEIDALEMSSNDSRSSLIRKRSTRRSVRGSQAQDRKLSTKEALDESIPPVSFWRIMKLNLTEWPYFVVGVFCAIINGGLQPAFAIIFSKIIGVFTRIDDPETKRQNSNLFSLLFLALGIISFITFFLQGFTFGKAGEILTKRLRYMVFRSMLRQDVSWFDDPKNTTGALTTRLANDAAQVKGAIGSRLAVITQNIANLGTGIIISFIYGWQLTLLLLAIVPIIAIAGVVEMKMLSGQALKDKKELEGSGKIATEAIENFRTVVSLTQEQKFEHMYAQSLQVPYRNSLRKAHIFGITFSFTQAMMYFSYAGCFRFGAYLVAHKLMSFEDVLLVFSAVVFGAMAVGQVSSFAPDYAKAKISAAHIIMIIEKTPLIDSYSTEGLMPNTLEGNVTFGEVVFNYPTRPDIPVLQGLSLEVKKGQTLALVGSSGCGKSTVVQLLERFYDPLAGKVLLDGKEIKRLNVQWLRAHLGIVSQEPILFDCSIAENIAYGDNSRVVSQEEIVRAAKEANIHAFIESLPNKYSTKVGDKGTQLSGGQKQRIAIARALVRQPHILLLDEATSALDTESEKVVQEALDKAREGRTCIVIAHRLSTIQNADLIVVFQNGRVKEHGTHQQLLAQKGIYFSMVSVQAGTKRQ

As for `O=[N+]([O-])c1ccc(COP(=O)(N2CC2)N2CC2)cc1Oc1ccc(-c2ccc(F)cc2)c(F)c1` [Compound 1], the results for the IC50 in data set [1] (setting [3]) and in data set [1] (setting [4]) were 40 nM and 0.87 nM, respectively. The efflux ratio (as a rule, the permeability from basolateral to apical divided by that in the opposite direction, in the common usage) at 2 h in data set [2] was 1.

Regarding `O=[N+]([O-])c1ccc(COP(=O)(N2CC2)N2CC2)cc1Oc1ccc(-c2ccc(F)cc2)cc1` [Compound 2], the IC50 in data set [1] (setting [3]) is 105 nM; in data set [1] (setting [4]), 1.89 nM. Also, the efflux ratio at 2 h in data set [2] was found to be 1.53.

As for `O=[N+]([O-])c1cc(F)c(COP(=O)(N2CC2)N2CC2)cc1Oc1ccc(-c2ccc(F)cc2)cc1` [Compound 3], the figures for the IC50 in data set [1] (setting [3]) and in data set [1] (setting [4]) were 47.8 nM and 1.84 nM, respectively. Moreover, in data set [2], the efflux ratio at 2 h turned out to be 1.2.

For `O=[N+]([O-])c1ccc(COP(=O)(N2CC2)N2CC2)cc1Oc1ccc(-c2ccc(F)cc2F)c(F)c1` [Compound 4], the IC50 in data set [1] (setting [3]) amounted to 16.3 nM; in data set [1] (setting [4]), 0.67 nM. For the same compound, the efflux ratio at 2 h in data set [2] came out at 0.87.

On to `Cc1cc(F)ccc1-c1ccc(Oc2cc(COP(=O)(N3CC3)N3CC3)ccc2[N+](=O)[O-])cc1F` [Compound 5], for which the IC50 came to 5.04 nM in data set [1] (setting [3]) and 0.59 nM in data set [1] (setting [4]). Further, the efflux ratio at 2 h in data set [2] is 1.69.

As to `O=[N+]([O-])c1ccc(COP(=O)(N2CC2)N2CC2)cc1Oc1ccc(C(F)(F)F)nc1` [Compound 6], the IC50 in data set [1] (setting [3]) is 38.2 nM; in data set [1] (setting [4]) it was 0.46 nM.

For the compound `O=[N+]([O-])c1ccc(COP(=O)(N2CC2)N2CC2)cc1Oc1ccc(-c2ccc(F)cc2)nc1` [Compound 7], the values for the IC50 in data set [1] (setting [3]) and in data set [1] (setting [4]) were 19.7 nM and 0.71 nM, respectively. The efflux ratio at 2 h in data set [2] was found to be 1.54.

As for `O=[N+]([O-])c1ccc(COP(=O)(N2CC2)N2CC2)cc1Oc1ccc(-c2ccc(F)cc2F)nc1` [Compound 8], the IC50 in data set [1] (setting [3]) is 26.8 nM; in data set [1] (setting [4]), less than 1.5 nM.

As to `O=[N+]([O-])c1ccc(COP(=O)(N2CC2)N2CC2)cc1Oc1ccc(Cl)nc1` [Compound 9], the figures for the IC50 in data set [1] (setting [3]) and in data set [1] (setting [4]) were 56.1 nM and less than 1.5 nM, respectively.

For the compound `O=[N+]([O-])c1ccc(COP(=O)(N2CC2)N2CC2)cc1Oc1ccc(-c2ccc(F)cn2)cc1` [Compound 10], the IC50 in data set [1] (setting [3]) was determined as 29.6 nM; in data set [1] (setting [4]), 1.15 nM. The efflux ratio at 2 h in data set [2] came out at 1.43.

Turning to `O=[N+]([O-])c1ccc(COP(=O)(N2CC2)N2CC2)cc1Oc1ccc(-c2ccc(F)cn2)c(F)c1` [Compound 11], the IC50 worked out at 92.2 nM in data set [1] (setting [3]) and 0.211 nM in data set [1] (setting [4]).

As for `O=[N+]([O-])c1ccc(COP(=O)(N2CC2)N2CC2)cc1Oc1ccc(-c2ccc(F)cc2F)nc1` [Compound 12], the IC50 is less than 1.5 nM in data set [1] (2 h exposure, washed, further 70 h, Alamar Blue, read-out: Inhibitory effect of the proliferation of the cancer cells IC50) and 11.4 nM in data set [1] (setting [3]).

For the compound `O=[N+]([O-])c1ccc(C(OP(=O)(N2CC2)N2CC2)C(F)(F)F)cc1Oc1cccc(-c2ccc(F)cc2)c1` (stereo not shown) [Compound 13], the IC50 in data set [1] (setting [3]) was 1890 nM; in data set [1] (setting [4]), 30 nM.

For `O=[N+]([O-])c1ccc(C(OP(=O)(N2CC2)N2CC2)C(F)(F)F)cc1Oc1ccc(-c2ccc(F)cc2F)cc1` (stereo not shown) [Compound 14], the IC50 in data set [1] (setting [3]) was greater than 1000 nM; in data set [1] (setting [4]) it was 11.4 nM. Moreover, the efflux ratio at 2 h in data set [2] worked out at 1.26.

As for `O=[N+]([O-])c1ccc(C(OP(=O)(N2CC2)N2CC2)C(F)(F)F)cc1Oc1ccc(-c2ccc(F)cc2)c(F)c1` (stereo not shown) [Compound 15], the IC50 in data set [1] (setting [4]) stood at 6.78 nM. Besides, in data set [2], the efflux ratio at 2 h is 1.36.

In the case of `O=[N+]([O-])c1ccc(C(OP(=O)(N2CC2)N2CC2)C(F)(F)F)cc1Oc1ccc(-c2ccc(F)cc2F)c(F)c1` (stereo not shown) [Compound 16], the IC50 in data set [1] (setting [3]) is greater than 500 nM; in data set [1] (setting [4]) it was 7.26 nM. Besides, the efflux ratio at 2 h in data set [2] worked out at 1.96.

For `O=[N+]([O-])c1ccc(C(OP(=O)(N2CC2)N2CC2)C(F)(F)F)cc1Oc1ccc(-c2ccc(F)cc2)nc1` (stereo not shown) [Compound 17], the figures for the IC50 in data set [1] (setting [3]) and in data set [1] (setting [4]) were greater than 10000 nM and 35.5 nM, respectively.

On to `O=[N+]([O-])c1ccc(C(OP(=O)(N2CC2)N2CC2)C(F)(F)F)cc1Oc1ccc(-c2ccc(C(F)(F)F)cc2)nc1` (stereo not shown) [Compound 18], for which the IC50 in data set [1] (setting [3]) is greater than 10000 nM; in data set [1] (setting [4]) it was 313 nM.

`O=[N+]([O-])c1ccc(C(OP(=O)(N2CC2)N2CC2)C(F)(F)F)cc1Oc1ccc(-c2ccc(F)cn2)cc1` (stereo not shown) [Compound 19]: the IC50 in data set [1] (setting [3]) is greater than 10000 nM; in data set [1] (setting [4]), 46.8 nM.

Turning to `Cc1ccc(NC(=O)c2ccc(CN3CCN(C)CC3)cc2)cc1Nc1nccc(-c2cccnc2)n1` [Imatinib, reference compound], the efflux ratio at 2 h in data set [2] is 18.1.

For the compound `COc1cc2nc(N3CCN(C(=O)c4ccco4)CC3)nc(N)c2cc1OC` [Prazosin, reference compound], the efflux ratio at 2 h in data set [2] worked out at 2.87.
